Source: PMC7782168, “Synthesis, telomerase inhibitory and anticancer activity of new 2-phenyl-4H-chromone derivatives containing 1,3,4-oxadiazole moiety” (Journal of Enzyme Inhibition and Medicinal Chemistry, 2020)

Tests used:
[1] = system: MGC-803 (human gastric cancer cell); experiment: In vitro anticancer (antiproliferative) MTT assay, MGC-803; format: cell-based
Protocol: (§1) A375, MDA-MB-231, MGC-803, SMMC-7721, SGC-7901 and L-02 cell lines were cultured in DMEM medium supplemented with 10% (V/V) heat-inactivated fetal bovine serum (FBS) (Biological Industries, Israel) along with 100 U/mL penicillin and […] streptomycin (Beyotime, China). Cells were grown in a humidified 5% CO2 atmosphere at 37 °C and maintained in a logarithmic growth phase for all experiments.
(§2) 2.5. Anticancer assay[23]

[2] = system: MDA-MB-231 (human breast cancer cell); experiment: In vitro anticancer (antiproliferative) MTT assay, MDA-MB-231; format: cell-based
Protocol: as §1, §2

[3] = system: A375 (human melanoma cell); experiment: In vitro anticancer (antiproliferative) MTT assay, A375; format: cell-based
Protocol: as §1, §2

[4] = system: SGC-7901 (human gastric cancer cell); experiment: In vitro anticancer (antiproliferative) MTT assay, SGC-7901; format: cell-based
Protocol: as §1, §2

[5] = system: SMMC-7721 (human hepatoma cell); experiment: In vitro anticancer (antiproliferative) MTT assay, SMMC-7721; format: cell-based
Protocol: as §1, §2

telomerase = target: T1, telomerase (Homo sapiens, UniProt O14746); experiment: Telomerase activity assay using MGC-803 cells extract; format: biochemical; settings: mean ± SD
T1 construct: assayed for telomerase activity using MGC-803 cells extract; endogenous in cells; host or cells: MGC-803 cell extract

[6] = system: human normal liver cell (L-02); experiment: Toxicity against human normal liver cells, MTT assay; format: cell-based; settings: triplicate
Protocol: as §1, §2
In order to determine the selective cytotoxicity of selected compounds, we subsequently conducted a proliferative inhibition assay with human normal liver cell (L-02). […] Therefore, in combination with the above points, it is quite meaningful to further explore the mechanisms of this compound.

[7] = Homo sapiens, MGC-803, mean ± SD of three experiments in triplicate
[8] = Homo sapiens, MDA-MB-231, mean ± SD of three experiments in triplicate
[9] = Homo sapiens, A-375, mean ± SD of three experiments in triplicate
[10] = Homo sapiens, SGC-7901, mean ± SD of three experiments in triplicate
[11] = Homo sapiens, SMMC-7721, mean ± SD of three experiments in triplicate
[12] = mean ± SD of three experiments in triplicate

T1 sequence (O14746 whole entry): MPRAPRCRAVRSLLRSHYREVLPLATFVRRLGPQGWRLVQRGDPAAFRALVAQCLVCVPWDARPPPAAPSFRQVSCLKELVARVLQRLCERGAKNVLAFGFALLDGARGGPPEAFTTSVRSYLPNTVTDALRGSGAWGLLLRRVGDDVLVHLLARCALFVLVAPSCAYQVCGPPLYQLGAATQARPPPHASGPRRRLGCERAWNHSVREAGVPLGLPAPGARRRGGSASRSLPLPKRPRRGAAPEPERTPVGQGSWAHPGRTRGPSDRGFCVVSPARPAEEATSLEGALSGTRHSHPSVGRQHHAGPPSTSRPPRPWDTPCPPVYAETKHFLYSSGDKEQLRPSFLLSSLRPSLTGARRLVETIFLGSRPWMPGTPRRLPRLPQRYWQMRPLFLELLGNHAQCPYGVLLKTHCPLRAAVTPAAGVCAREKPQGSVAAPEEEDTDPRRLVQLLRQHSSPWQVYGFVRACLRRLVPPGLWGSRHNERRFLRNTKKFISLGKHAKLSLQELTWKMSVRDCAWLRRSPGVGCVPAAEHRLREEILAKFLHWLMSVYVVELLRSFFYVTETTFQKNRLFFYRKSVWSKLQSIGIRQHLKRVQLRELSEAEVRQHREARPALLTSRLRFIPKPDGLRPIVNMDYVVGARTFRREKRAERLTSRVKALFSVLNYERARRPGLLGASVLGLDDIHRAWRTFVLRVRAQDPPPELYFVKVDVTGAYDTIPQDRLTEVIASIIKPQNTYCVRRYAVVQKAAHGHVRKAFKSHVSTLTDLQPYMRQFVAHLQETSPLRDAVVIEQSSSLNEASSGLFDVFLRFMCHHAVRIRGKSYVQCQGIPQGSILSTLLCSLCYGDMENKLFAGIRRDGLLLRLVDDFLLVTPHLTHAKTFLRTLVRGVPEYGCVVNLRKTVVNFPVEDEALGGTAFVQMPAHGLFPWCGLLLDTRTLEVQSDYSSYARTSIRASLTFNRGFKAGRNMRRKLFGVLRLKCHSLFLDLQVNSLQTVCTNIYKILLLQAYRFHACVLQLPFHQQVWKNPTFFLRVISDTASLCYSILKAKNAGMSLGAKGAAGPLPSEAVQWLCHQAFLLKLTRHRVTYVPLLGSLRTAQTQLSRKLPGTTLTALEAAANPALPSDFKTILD
T1 sequence (O60832 2-514 partner limits assumed): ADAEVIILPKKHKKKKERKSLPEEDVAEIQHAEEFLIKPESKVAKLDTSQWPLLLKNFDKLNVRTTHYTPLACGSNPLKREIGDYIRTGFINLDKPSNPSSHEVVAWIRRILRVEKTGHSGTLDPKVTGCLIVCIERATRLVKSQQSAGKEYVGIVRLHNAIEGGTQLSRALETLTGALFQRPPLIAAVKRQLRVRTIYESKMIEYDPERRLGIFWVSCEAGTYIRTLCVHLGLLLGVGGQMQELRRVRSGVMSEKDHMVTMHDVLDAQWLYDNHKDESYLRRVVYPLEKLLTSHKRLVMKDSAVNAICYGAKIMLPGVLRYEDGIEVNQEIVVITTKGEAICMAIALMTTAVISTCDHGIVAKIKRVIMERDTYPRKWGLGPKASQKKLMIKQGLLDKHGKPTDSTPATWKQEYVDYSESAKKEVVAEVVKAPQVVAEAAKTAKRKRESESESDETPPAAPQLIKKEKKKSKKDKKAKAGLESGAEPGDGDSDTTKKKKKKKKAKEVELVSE
T1 sequence (Q9NPE3 whole entry partner): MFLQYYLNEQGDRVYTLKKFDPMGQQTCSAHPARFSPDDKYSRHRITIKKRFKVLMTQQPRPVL
T1 sequence (Q9NX24 whole entry partner): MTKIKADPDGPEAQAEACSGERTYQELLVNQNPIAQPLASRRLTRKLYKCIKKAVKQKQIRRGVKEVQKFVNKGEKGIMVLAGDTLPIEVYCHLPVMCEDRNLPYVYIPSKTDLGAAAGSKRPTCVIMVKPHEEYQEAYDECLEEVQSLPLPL
T1 sequence (Q9NY12 whole entry partner): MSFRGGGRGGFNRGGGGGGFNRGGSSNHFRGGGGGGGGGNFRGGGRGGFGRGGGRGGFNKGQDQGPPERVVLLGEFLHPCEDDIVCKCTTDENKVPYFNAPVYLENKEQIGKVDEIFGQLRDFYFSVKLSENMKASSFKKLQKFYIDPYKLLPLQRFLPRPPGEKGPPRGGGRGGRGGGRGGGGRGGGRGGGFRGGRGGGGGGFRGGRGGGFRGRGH

Row | Compound | IC50 [1, 7] [µM] | IC50 [2, 8] [µM] | IC50 [3, 9] [µM] | IC50 [4, 10] [µM] | IC50 [5, 11] [µM] | IC50 [1, 12] [µM] | IC50 [2, 12] [µM] | IC50 [3, 12] [µM] | IC50 [4, 12] [µM] | IC50 [5, 12] [µM] | IC50 (telomerase) [µM] | IC50 [6] [µM] | melting point [°C]
1 | COc1cccc2c1C(=O)c1c(O)c3c(c(O)c1C2=O)C[C@@](O)(C(=O)CO)C[C@@H]3O[C@H]1C[C@H](N)[C@H](O)[C@H](C)O1 [ADM, Adriamycin, reference compound] | 0.42 ± 0.08 | 0.51 ± 0.12 | 0.58 ± 0.2 | 0.82 ± 0.43 | 0.79 ± 0.13 | – | – | – | – | – | – | – | –
2 | C/C(=C\C(=O)Nc1ccccc1C(=O)O)c1ccc2ccccc2c1 [BIBR1532, reference compound] | – | – | – | – | – | > 100 | > 100 | 57.58 ± 0.21 | > 100 | > 100 | – | – | –
3 | COc1cc(OC)c2c(=O)c(OCC(=O)Nc3nnc(-c4cccc(OC(F)(F)F)c4)o3)c(-c3cc(OC)c(OC)c(OC)c3)oc2c1 [A20, 2–(5,7-dimethoxy-4-oxo-2–(3,4,5-trimethoxyphenyl)-4H-chromen-3-yloxy)-N-(5–(3-(trifluoromethoxy)phenyl)-1,3,4-oxadiazol-2-yl)acetamide] | 6.29 ± 0.36 | 19.5 ± 1 | 8.92 ± 0.69 | 10.2 ± 0.65 | > 100 | – | – | – | – | – | 0.92 ± 0.17 | 620 ± 240 | 221 to 223
4 | COc1cc(OC)c2c(=O)c(OCC(=O)Nc3nnc(-c4ccc(OC)c(OC)c4)o3)c(-c3cc(OC)c(OC)c(OC)c3)oc2c1 [A27, 2–(5,7-dimethoxy-4-oxo-2–(3,4,5-trimethoxyphenyl)-4H-chromen-3-yloxy)-N-(5–(3,4-dimethoxyphenyl)-1,3,4-oxadiazol-2-yl)acetamide] | > 100 | > 100 | > 100 | > 100 | > 100 | – | – | – | – | – | 0.32 ± 0.07 | 1380 ± 210 | 220 to 222
5 | COc1cc(OC)c2c(=O)c(OCC(=O)Nc3nnc(-c4ccc(Cl)cc4)o3)c(-c3cc(OC)c(OC)c(OC)c3)oc2c1 [A5, N-(5–(4-chlorophenyl)-1,3,4-oxadiazol-2-yl)-2–(5,7-dimethoxy-4-oxo-2–(3,4,5-trimethoxyphenyl)-4H-chromen-3-yloxy)acetamide] | 15.2 ± 0.41 | > 100 | 20.1 ± 0.62 | 25.4 ± 0.59 | > 100 | – | – | – | – | – | 0.81 ± 0.13 | 1990 ± 130 | 227 to 229
6 | COc1cc(OC)c2c(=O)c(OCC(=O)Nc3nnc(-c4ccc(C(F)(F)F)cc4)o3)c(-c3cc(OC)c(OC)c(OC)c3)oc2c1 [A16, 2–(5,7-dimethoxy-4-oxo-2–(3,4,5-trimethoxyphenyl)-4H-chromen-3-yloxy)-N-(5–(4-(trifluoromethyl)phenyl)-1,3,4-oxadiazol-2-yl)acetamide] | > 100 | > 100 | 10.1 ± 0.52 | > 100 | > 100 | – | – | – | – | – | 0.62 ± 0.11 | 900 ± 110 | 231 to 233
7 | COc1cc(OC)c2c(=O)c(OCC(=O)Nc3nnc(/C=C/c4ccccc4)o3)c(-c3ccc(OC)c(OC)c3)oc2c1 [B33, (E)-2–(2-(3,4-dimethoxyphenyl)-5,7-dimethoxy-4-oxo-4H-chromen-3-yloxy)-N-(5-styryl-1,3,4-oxadiazol-2-yl)acetamide] | > 100 | > 100 | > 100 | > 100 | > 100 | – | – | – | – | – | 0.97 ± 0.2 | 1010 ± 140 | 226 to 228
8 | COc1cc(OC)c2c(=O)c(OCC(=O)Nc3nnc(-c4ccc(OC)c(OC)c4)o3)c(-c3ccc(OC)c(OC)c3)oc2c1 [B27, N-(5–(3,4-dimethoxyphenyl)-1,3,4-oxadiazol-2-yl)-2–(2-(3,4-dimethoxyphenyl)-5,7-dimethoxy-4-oxo-4H-chromen-3-yloxy)acetamide] | > 100 | > 100 | > 100 | > 100 | > 100 | – | – | – | – | – | 0.51 ± 0.1 | 1670 ± 250 | 151 to 153
9 | COc1cc(OC)c2c(=O)c(OCC(=O)Nc3nnc(-c4cccc5ccccc45)o3)c(-c3ccc(OC)c(OC)c3)oc2c1 [B28, 2–(2-(3,4-dimethoxyphenyl)-5,7-dimethoxy-4-oxo-4H-chromen-3-yloxy)-N-(5-(naphthalen-1-yl)-1,3,4-oxadiazol-2-yl)acetamide] | – | – | – | – | – | – | – | – | – | – | 1.19 ± 0.18 | – | 230 to 232
10 | COc1cc(OC)c2c(=O)c(OCC(=O)Nc3nnc(-c4ccc(F)cc4)o3)c(-c3cc(OC)c(OC)c(OC)c3)oc2c1 [A2, 2–(5,7-dimethoxy-4-oxo-2–(3,4,5-trimethoxyphenyl)-4H-chromen-3-yloxy)-N-(5–(4-fluorophenyl)-1,3,4-oxadiazol-2-yl)acetamide] | 17.3 ± 2.21 | 25.1 ± 2.1 | 11 ± 1.54 | 56.9 ± 1.24 | 8.07 ± 1.3 | – | – | – | – | – | 0.77 ± 0.13 | 1370 ± 430 | 221 to 223
11 | COc1cc(OC)c2c(=O)c(OCC(=O)Nc3nnc(-c4cccc([N+](=O)[O-])c4)o3)c(-c3ccc(OC)c(OC)c3)oc2c1 [B14, 2–(2-(3,4-dimethoxyphenyl)-5,7-dimethoxy-4-oxo-4H-chromen-3-yloxy)-N-(5–(3-nitrophenyl)-1,3,4-oxadiazol-2-yl)acetamide] | – | – | – | – | – | – | – | – | – | – | 8.29 ± 1.33 | – | 235 to 237
12 | COc1cc(OC)c2c(=O)c(OCC(=O)Nc3nnc(-c4ccc(Cl)cc4)o3)c(-c3ccc(OC)c(OC)c3)oc2c1 [B5, N-(5–(4-chlorophenyl)-1,3,4-oxadiazol-2-yl)-2–(2-(3,4-dimethoxyphenyl)-5,7-dimethoxy-4-oxo-4H-chromen-3-yloxy)acetamide] | – | – | – | – | – | – | – | – | – | – | 4.22 ± 0.62 | – | 213 to 215
13 | COc1cc(OC)c2c(=O)c(OCC(=O)Nc3nnc(-c4cccc5ccccc45)o3)c(-c3cc(OC)c(OC)c(OC)c3)oc2c1 [A28, 2–(5,7-dimethoxy-4-oxo-2–(3,4,5-trimethoxyphenyl)-4H-chromen-3-yloxy)-N-(5-(naphthalen-1-yl)-1,3,4-oxadiazol-2-yl)acetamide] | – | – | – | – | – | – | – | – | – | – | 6.17 ± 0.99 | – | 238 to 240
14 | COc1cc(OC)c2c(=O)c(OCC(=O)Nc3nnc(-c4ccccc4Cl)o3)c(-c3cc(OC)c(OC)c(OC)c3)oc2c1 [A7, N-(5–(2-chlorophenyl)-1,3,4-oxadiazol-2-yl)-2–(5,7-dimethoxy-4-oxo-2–(3,4,5-trimethoxyphenyl)-4H-chromen-3-yloxy)acetamide] | – | – | – | – | – | – | – | – | – | – | 12.5 ± 1.88 | – | 201 to 203
